In patent US20080045535A1, “Prokineticin 2 receptor antagonists” (priority 2005, published 2008):
Several values for one entry are separate records, joined by “and”; a condition that tells them apart may be missing. Equal entries are not always repeated.

Target: T1, HEK 293 GPR73 (prokineticin 1 receptor) expressing cells (Homo sapiens, UniProt Q8TCW9)
T1 construct: expressed in transfected cells; host or cells: HEK 293
Assay: PK1 functional assay: screening for PK1 antagonists on the FLIPR (calcium fluorescence)
Format: cell-based
Conditions: HEK 293 GPR73 cells; for inhibition at 10 µM: HEK293, compound at 10 μM, read-out: Ca^2+ Mobilization % Inh @10 μM; for inhibition at 10 µM / Ca^2+ Mobilization % Inh @10 μM: multiple values = repeat tests; for IC50: PK1 ligand at EC50, multiple values = repeat tests, read-out: Ca^2+ Mobilization IC50; for Ca^2+ Mobilization % Inh @10 μM: compound at 10 μM
Procedure: At a time of 24 h prior to running the assay, in cell culture media (DMEM containing high Glucose and L-glutamine, 10% FBS, 1% Pen/Streptomycin, 1% Sodium Pyruvate, 20 mM HEPES, Zeocin 200 mg/L), 100 μL of 1.3*10^6/ml HEK 293 GPR73 (prokineticin 1 receptor) expressing cells were plated in a 96 well poly-d-lysine coated plate (Costar), and incubated at 37 C and 5% CO2. On the day in which the assay was run, the media was removed and 200 μL of 5× Calcium Plus Dye (Molecular Devices) which was previously resuspended with 200 mL of assay buffer [HBSS w/Ca^2+ and Mg^2+ w/o phenol red, 20 mM HEPES, 0.1% BSA, 10 mL probenecid (710 mg probenecid in 5 mL of 1N NaOH, to which was then added 5 mL HBSS containing 20 mM HEPES)] was added to each well of the 96-well plate. The plate was incubated at 37 C and 5% CO2 for 30 min in dark. The plate was removed and allowed to reach RT for 15 min in the dark. The assay was then run on the FLIPR. […] Baseline is described as the amount of relative fluorescence read when buffer alone is added to cells. Baseline was subtracted from all wells. Percent of control was calculated as follows:
(Baseline subtracted well value is divided by baseline subtracted max value)*100.
Percent inhibition is 100 minus the percent of control value.
IC50 values were calculated using GraphPad Prism.
Table 2 includes data generated from the PK1 functional assay described in Example 2.

T1 sequence (Q8TCW9 whole entry): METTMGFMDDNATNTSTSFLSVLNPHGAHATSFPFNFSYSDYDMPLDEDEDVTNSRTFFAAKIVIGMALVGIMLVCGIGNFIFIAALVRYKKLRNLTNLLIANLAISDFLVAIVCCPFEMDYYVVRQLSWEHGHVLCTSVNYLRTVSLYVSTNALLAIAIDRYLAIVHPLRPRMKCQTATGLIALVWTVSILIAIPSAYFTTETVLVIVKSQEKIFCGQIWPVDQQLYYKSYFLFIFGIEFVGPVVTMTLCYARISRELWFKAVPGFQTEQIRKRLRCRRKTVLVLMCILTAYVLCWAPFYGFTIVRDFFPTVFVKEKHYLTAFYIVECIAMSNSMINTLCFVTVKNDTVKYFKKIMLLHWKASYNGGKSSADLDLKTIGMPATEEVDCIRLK

SMILES | inhibition at 10 µM [%] | IC50 | Ca^2+ Mobilization % Inh @10 μM (10 µM) | Ca^2+ Mobilization % Inh @10 μM
COc1ccc(Cn2c(NCCNC(=N)N)nc(=O)n(Cc3ccc(C(=O)O)cc3)c2=O)cc1 [Cpd 101, 4-[4-(2-Guanidino-ethylamino)-3-(4-methoxy-benzyl)-2,6-dioxo-3,6-dihydro-2H-[1,3,5]triazin-1-ylmethyl]-benzoic acid] | 33 | > 10000 nM |  | 
COc1ccc(Cn2c(NCC(C)(C)NC(=N)N)nc(=O)n(Cc3ccc(Cl)c(Cl)c3)c2=O)cc1 [Cpd 102] | 68 | 3490 nM |  | 
COc1ccc(Cn2c(NCCNC(=N)Nc3ccc(Br)cc3)nc(=O)n(Cc3ccc(F)cc3)c2=O)cc1 [Cpd 103] | 99 | 23 nM |  | 
COc1ccc(Cn2c(NCCN(C(=N)N)c3ccccn3)nc(=O)n(Cc3ccc(F)cc3)c2=O)cc1 [Cpd 104, N-{2-[5-(4-Fluoro-benzyl)-1-(4-methoxy-benzyl)-4,6-dioxo-1,4,5,6-tetrahydro-[1,3,5]triazin-2-ylamino]-ethyl}-N-pyridin-2-yl-guanidine] |  | 11 nM | 99% and 102% | 
COc1ccc(Cn2c(NCCNC(=N)NCCc3ccccn3)nc(=O)n(Cc3ccc(F)cc3)c2=O)cc1 [Cpd 105] |  | 89 nM |  | 100%
CCOC(=O)c1ccc(NC(=N)NCCNc2nc(=O)n(Cc3ccc(F)cc3)c(=O)n2Cc2ccc(OC)cc2)cc1 [Cpd 106] | 89 | 508 nM |  | 
COc1ccc(Cn2c(NCCNC(=N)Nc3ccc(F)cc3F)nc(=O)n(Cc3ccc(F)cc3)c2=O)cc1 [Cpd 107] | 101 | 12 nM |  | 
CCCCCCCCCCNC(=N)NCCNc1nc(=O)n(Cc2ccc(F)cc2)c(=O)n1Cc1ccc(OC)cc1 [Cpd 108] | 89 | 369 nM |  | 
COc1ccc(Cn2c(NCCNC(=N)N)nc(=O)n(Cc3ccc(OC(C)(C)C)cc3)c2=O)cc1 [Cpd 109] |  | 129 nM |  | 99%
COc1ccc(Cn2c(NCCNC(=N)N)nc(=O)n(Cc3ccc(O)cc3)c2=O)cc1 [Cpd 110, N-{2-[5-(4-Hydroxy-benzyl)-1-(4-methoxy-benzyl)-4,6-dioxo-1,4,5,6-tetrahydro-[1,3,5]triazin-2-ylamino]-ethyl}-guanidine] | 81 | 1160 nM |  | 
COc1ccc(Cn2c(NCCNC(=N)N)nc(=O)n(Cc3csc(Cl)n3)c2=O)cc1 [Cpd 111] | 100 | 154 nM |  | 
COc1ccc(Cn2c(NCCNC(=N)N)nc(=O)n(Cc3cc4ccccc4o3)c2=O)cc1 [Cpd 112] | 101 | 26 nM |  | 
COc1ccc(Cn2c(NCCN(C)C(=N)N)nc(=O)n(Cc3ccc(Cl)c(Cl)c3)c2=O)cc1 [Cpd 113] | 101 | 11 nM and 24 nM and 46 nM and 76 nM | 100% and 102% | 
COc1ccc(Cn2c(NCCNC(=N)NCC(F)(F)F)nc(=O)n(Cc3ccc(F)cc3)c2=O)cc1 [Cpd 114] | 99 | 41 nM |  | 
COCCCNC(=N)NCCNc1nc(=O)n(Cc2ccc(F)cc2)c(=O)n1Cc1ccc(OC)cc1 [Cpd 115] | 99 | 47 nM |  | 
COc1ccc(Cn2c(NCCNC(=N)N3CCCCC3)nc(=O)n(Cc3ccc(F)cc3)c2=O)cc1 [Cpd 116] | 99 | 57 nM |  | 
COc1ccc(Cn2c(NCCNC(=N)N(C)c3ccccc3)nc(=O)n(Cc3ccc(F)cc3)c2=O)cc1 [Cpd 117] | 79 | 84 nM |  | 
COc1ccc(Cn2c(NCCN(C(=N)N)c3ccccc3F)nc(=O)n(Cc3ccc(F)cc3)c2=O)cc1 [Cpd 118, N-{2-[5-(4-Fluoro-benzyl)-1-(4-methoxy-benzyl)-4,6-dioxo-1,4,5,6-tetrahydro-[1,3,5]triazin-2-ylamino]-ethyl}-N-(2-fluoro-phenyl)-guanidine] |  | 6 nM | 98% and 102% | 
COc1ccc(Cn2c(NCCNC(=N)Nc3ccc(F)cc3)nc(=O)n(Cc3ccc(F)cc3)c2=O)cc1 [Cpd 119, N-{2-[5-(4-Fluoro-benzyl)-1-(4-methoxy-benzyl)-4,6-dioxo-1,4,5,6-tetrahydro-[1,3,5]triazin-2-ylamino]-ethyl}-N′-(4-fluoro-phenyl)-guanidine] | 102 | 6 nM and 12 nM | 99% | 
COc1ccc(Cn2c(NCCNC(=N)Nc3ccc(C)cc3)nc(=O)n(Cc3ccc(F)cc3)c2=O)cc1 [Cpd 120] | 100 | 9 nM and 15 nM | 102% | 
COc1ccc(Cn2c(NCCNC(=N)NC(C)(C)C)nc(=O)n(Cc3ccc(F)cc3)c2=O)cc1 [Cpd 121] | 101 | 20 nM and 33 nM | 98% | 

SMILES | inhibition at 10 µM [%] | IC50 | Ca^2+ Mobilization % Inh @10 μM (10 µM) | Ca^2+ Mobilization % Inh @10 μM
N=C(N)NCCNc1nc(=O)n(Cc2ccc(Cl)cc2)c(=O)n1Cc1ccc(N)cc1 [Cpd 122, N-{2-[1-(4-Amino-benzyl)-5-(4-chloro-benzyl)-4,6-dioxo-1,4,5,6-tetrahydro-[1,3,5]triazin-2-ylamino]-ethyl}-guanidine] | 78 | 1080 nM |  | 
COc1ccc(Cn2c(NCCNC(=N)N)nc(=O)n(CC(C)(C)C)c2=O)cc1 [Cpd 123] | 34 | > 10000 nM |  | 
COc1ccc(Cn2c(NCCNC(=N)N)nc(=O)n(CC3CCCC3)c2=O)cc1 [Cpd 124] | 74 | 1560 nM |  | 
COc1ccc(Cn2c(NCCNC(=N)N)nc(=O)n(Cc3ccc(N)cc3)c2=O)cc1 [Cpd 125, N-{2-[5-(4-Amino-benzyl)-1-(4-methoxy-benzyl)-4,6-dioxo-1,4,5,6-tetrahydro-[1,3,5]triazin-2-ylamino]-ethyl}-guanidine] | 83 | 487 nM |  | 
COc1ccc(Cn2c(NCCNC(=N)NC3C4CC5CC(C4)CC3C5)nc(=O)n(Cc3ccc(F)cc3)c2=O)cc1 (centres unmarked) [Cpd 126] | 95 | 115 nM |  | 
COc1ccc(Cn2c(NCCNC(=N)Nc3ccc(OC(F)(F)F)cc3)nc(=O)n(Cc3ccc(F)cc3)c2=O)cc1 [Cpd 127] | 100 | 58 nM |  | 
COc1ccc(Cn2c(NCCNC(=N)Nc3ccc(O)cc3)nc(=O)n(Cc3ccc(F)cc3)c2=O)cc1 [Cpd 128] | 100 | 40 nM |  | 
NC(N)=NCCNc1nc(=O)n(Cc2ccc(Cl)cc2)c(=O)n1Cc1ccccc1 [Cpd 129] | 64 | 4780 nM |  | 
N=C(N)NCCNc1nc(=O)n(Cc2ccc(Cl)cc2)c(=O)n1Cc1ccoc1 [Cpd 130] | 71 | 1870 nM |  | 
COc1ccc(Cn2c(NC3CCC(NC(=N)N)CC3)nc(=O)n(Cc3ccc(F)cc3)c2=O)cc1 (centres unmarked) [Cpd 131] |  | > 10000 nM |  | 32%
COc1ccc(Cn2c(NCC(=O)NC(=N)NC(=O)OC(C)(C)C)nc(=O)n(Cc3ccc(F)cc3)c2=O)cc1 [Cpd 132, N-{2-[5-(4-fluoro-benzyl)-1-(4-methoxy-benzyl)-4,6-dioxo-1,4,5,6-tetrahydro-[1,3,5]triazin-2-ylamino]-acetyl}-N′-boc-guanidine] | 54 | 8500 nM |  | 
COc1ccc(Cn2c(NCCNC(=N)Nc3ccccc3SC)nc(=O)n(Cc3ccc(F)cc3)c2=O)cc1 [Cpd 133] | 93 | 200 nM |  | 
COc1ccc(Cn2c(NCCN(C(=N)N)C(=O)c3ccccc3)nc(=O)n(Cc3ccc(F)cc3)c2=O)cc1 [Cpd 134, N-Benzoyl-N-{2-[5-(4-fluoro-benzyl)-1-(4-methoxy-benzyl)-4,6-dioxo-1,4,5,6-tetrahydro-[1,3,5]triazin-2-ylamino]-ethyl}-guanidine] |  | 19 nM and 28 nM |  | 97, 97%
COc1ccc(Cn2c(NCCNC(=N)Nc3ncccn3)nc(=O)n(Cc3ccc(F)cc3)c2=O)cc1 [Cpd 135] | 100 | 13 nM and 24 nM | 94% | 
COc1ccc(Cn2c(N[C@@H](C)[C@H](C)NC(=N)N)nc(=O)n(Cc3ccc(F)cc3)c2=O)cc1 [Cpd 136] | 50 | > 10000 nM |  | 
COc1ccc(Cn2c(N[C@H](C)[C@@H](C)NC(=N)N)nc(=O)n(Cc3ccc(F)cc3)c2=O)cc1 [Cpd 137] | 101 | 15 nM and 31 nM |  | 
COc1ccc(Cn2c(NCCNC(=N)Nc3nc4c(c(C(F)(F)F)n3)CCCC4)nc(=O)n(Cc3ccc(F)cc3)c2=O)cc1 [Cpd 138] | 70 | 1340 nM |  | 
COc1ccc(Cn2c(NCCNC(=N)Nc3ccc(C)cn3)nc(=O)n(Cc3ccc(F)cc3)c2=O)cc1 [Cpd 139] | 95 | 18 nM |  | 
COc1ccc(Cn2c(NCCNC(=N)N3CCOCC3)nc(=O)n(Cc3ccc(F)cc3)c2=O)cc1 [Cpd 140] | 89 | 455 nM |  | 
N=C(N)NCCNc1nc(=O)n(Cc2ccc(Cl)cc2)c(=O)n1Cc1ccco1 [Cpd 141] | 73 | 1840 nM |  | 
COc1ccc(Cn2c(NCCCCCNC(=N)N)nc(=O)n(Cc3ccc(Cl)cc3)c2=O)cc1 [Cpd 142] | 90 | 323 nM |  | 
